Measurements from patent US4276285A, “Combinations of penicillanic acid 1,1-dioxide with 7-(D-2-[4-ethylpiperazin-2,3-dione-1-carboxamido]-2-[4-hydroxyphenyl]ace tamido)-3-([1-methyl-5-tetrazolyl]thiomethyl)-3-desacetoxymethylcephalosp oranic acid” (priority 1979, dated 1981).

Legend:
[1] = system: resistant Escherichia coli; assay: MIC alone and in combination against 30 strains of resistant Escherichia coli; type: cell-based
Procedure: The manner in which the compounds of the formula I increase the effectiveness of the compound of formula XXII and the pharmaceutically-acceptable salts thereof can be appreciated by reference to experiments in which the MIC of the compound of the formula XXII alone, and the compound of the formula I wherein R^1 is hydrogen alone, are measured. These MIC's are then compared with the MIC values obtained with a combination of the compound of formula XXII and the compound of the formula I, wherein R^1 is hydrogen. […] The MIC values of combinations are measured using the method described by Barry and Sabath in "Manual of Clinical Microbiology", edited by Lenette, Spaulding and Truant, 2nd edition, 1974, American Society of Microbiology.
The minimum inhibitory concentrations (MIC's) of penicillanic acid 1,1-dioxide (PA 1,1-dioxide) alone and 7-(D-2-[4-ethylpiperazine-2,3-dione-1-carboxamido]-2-[4-hydroxyphenyl]acetamido)-3-([1-methyl-5-tetrazolyl]thiomethyl)-3-desacetoxymethylcephalosporanic acid (T-1551) alone, against 30 strains of resistant Escherichia coli, were measured. These MIC's were then compared with the MIC values obtained with a combination of the two compounds. The results were as follows:
The MIC's were measured using the method recommended by the International Collaborative Study on Antibiotic Sensitivity Testing (Ericcson and Sherris, Acta. Pathologica et Microbiologica Scandivav, Supp. 217, Section B, 64-68 [1971]), which employed brain heart infusion agar and the inocular replicating device. Overnight growth tubes were diluted 10-fold for use as the standard inoculum. Twelve two-fold dilutions of the test compound were employed with initial concentration of the test drug being 200 mcg/ml. Single colonies were disregarded when reading plates after 18 hours at 37° C. […] The MIC's of combinations were measured using the method described by Barry and Sabath in "Manual of Clinical Microbiology", edited by Lenette, Spaulding and Truant, 2nd edition, 1974, American Society for Microbiology.

[2] = system: microbial beta-lactamases; assay: Inhibition of microbial beta-lactamases; type: biochemical; settings: result in words

Row | Compound | MIC ([1]; alone, BHI agar, 18 hours at 37° C., read-out: Mode MIC of T-1551 alone) | Mode MIC's of T-1551 & PA 1,1-Dioxide in Combination: T-1551 ([1]; in combination with PA 1,1-Dioxide (1.56)) | Mode MIC's of T-1551 & PA 1,1-Dioxide in Combination: PA 1,1-Dioxide ([1]; in combination with T-1551 (1.56)) | inhibition of microbial beta-lactamases [2]
1 | CCN1CCN(C(=O)N[C@@H](C(=O)N[C@@H]2C(=O)N3C(C(=O)O)=C(CSc4nnnn4C)CS[C@H]23)c2ccc(O)cc2)C(=O)C1=O [Example T-1551, 7-(D-2-[4-ethylpiperazine-2,3-dione-1-carboxamido]-2-[4-hydroxyphenyl]acetamido)-3-([1-methyl-5-tetrazolyl]thiomethyl)-3-desacetoxymethylcephalosporanic acid] | 100 µg/mL | 1.56 | – | –
2 | CC1(C)[C@H](C(=O)O)N2C(=O)C[C@H]2S1(=O)=O [Penicillanic Acid 1,1-Dioxide] | – | – | 1.56 | potent inhibitors of microbial beta-lactamases
